Patent US20190105367A1, “ANTIMICROBIAL 4-OXOQUINOLIZINES” (Emergent Product Development Gaithersburg Inc., priority 2011, published 2019)
≈ marks a conversion by molar mass, not a printed value. Like-named read-outs stand apart in the source and are kept apart here. Marks after values point to notes of the source that are not given here.

Assays:
S. pneumoniae 49619 = assay: MIC, panel of quinolone-resistant strains (Example 2); type: cell-based, Streptococcus pneumoniae; details: Streptococcus pneumoniae, 49619; LEV S; read-out: MIC S. pneumoniae 49619
[1] = test system: Acinetobacter sp. (H064200250); assay: Preliminary MBC without and with sub-inhibitory polymyxin B (Example 4); type: cell-based; details: preliminary MBC
Method: The plates were incubated for 18-20 hours at 37° C. The MBC was read as the lowest concentration at which colony growth was ca. 90% less than the positive control (i.e. usually where single colonies or no colonies were observed).

E. faecalis 29212 = assay: MIC, standard panel of Gram-positive and Gram-negative strains (Example 2); type: cell-based, Enterococcus faecalis; details: Enterococcus faecalis, 29212; read-out: MIC E. faecalis 29212
A. baumannii J2 = assay: Preliminary MBC without and with sub-inhibitory polymyxin B (Example 4); type: cell-based, Acinetobacter baumannii; details: preliminary MBC
Cytotoxicity (Example 7) = type: cell-based; details: human, HEPG2 V1 cells
Method: The 4-oxoquinolizine compounds of the invention preferably have a low cytotoxicity against human cells. […].
Cytotoxicity was determined for the instant 4-oxoquinolizine compounds which show low cytotoxicity. (see Table 17 following). […]

B. thailandensis = type: cell-based, Burkholderia thailandensis; details: pH 7 vs pH 5
A. baumannii A329 = assay: Preliminary MBC without and with sub-inhibitory polymyxin B (Example 4); type: cell-based, Acinetobacter baumannii; details: for MBC: 2nd experiment
A. baumanii 19606 = assay: MIC, standard panel of Gram-positive and Gram-negative strains (Example 2); type: cell-based; details: Acinetobacter baumannii
S. aureus SMITH = assay: MIC, panel of quinolone-resistant strains (Example 2); type: cell-based; details: Staphylococcus aureus; CIP R; read-out: MIC S. aureus SMITH
A. baumannii A489 = assay: Preliminary MBC without and with sub-inhibitory polymyxin B (Example 4); type: cell-based, Acinetobacter baumannii; details: preliminary MBC
[2] = test system: strains of A. baumannii and one strain of Acinetobacter sp.; assay: MIC without polymyxin B, panel of Acinetobacter strains (Example 4); type: cell-based; details: 1st experiment; resistant strains, ATCC 19606, A329, A390 and A473 not taken
[3] = test system: GN31 Acinetobacter baumannii antibiotic susceptible isolate; assay: Chequerboard synergy with polymyxin B, FICI (Example 6); type: cell-based
Source text: (§1) A chequerboard technique was used to identify possible synergistic or antagonistic interactions between the 4-oxoquinolizines compounds, levofloxacin and polymyxin B. Levofloxacin was included as a control. […] Final dilutions were made in Mueller-Hinton broth, the specific test medium used for MIC determinations according to CLSI guidelines (CLSI. Methods for Dilution Antimicrobial Susceptibility Tests for Bacteria That Grow Aerobically; Approved Standard-Eighth Edition (2009). CLSI Document M07-A8. CLSI, Wayne, Pa. 19087-1898, USA.). The test medium used was a cation-adjusted Mueller-Hinton Broth II (Becton Dickinson UK Ltd., Oxford Science Park, Oxford, UK, OX4 4DQ).
(§2) The compounds 2, 33 and 35, as well as levofloxacin were tested in combination with polymyxin B on the following isolates: GN31 Acinetobacter baumannii—antibiotic susceptible clinical isolate, GN52 Acinetobacter baumannii—levofloxacin resistant clinical isolate, GN56 Acinetobacter baumannii—levofloxacin resistant clinical isolate, GN48 Klebsiella pneumoniae—NCTC 13443—NDM-1-metallo-β-lactamase and GN10 Pseudomonas aeruginosa—ATCC 27853—antibiotic susceptible reference isolate. All isolates are from the collection maintained at Quotient Bioresearch Ltd., Cambridge, UK.
(§3) The MIC values for the compounds and polymyxin B and levofloxacin were determined by broth microdilution following CLSI guidelines, and the MICs of agents in combination were determined as described by Pillai et. al (Pillai S K, Moellering R C Jr, Eliopoulis G M; Antimicrobial Combinations in Antibiotics in Laboratory Medicine 5th Edition (V. Lorian Ed) (2005) p 365-440). Initial MIC results were used to determine the microtiter plate patterns for the chequerboards. A suitable doubling dilution concentration range was selected such that the combination antibiotic range was at least two concentrations above and four concentrations below the MIC for each isolate. A fixed range of 0.008 to 8 mg/L was tested for polymyxin B except in the case of A. baumannii GN31 where a range of 0.004 to 4 mg/L was tested when in combination with the compounds 2, 33 and 35 as well as levofloxacin.
(§4) From the raw data, fractional inhibitory concentration indices (FICI) were determined for the compounds of the invention and levofloxacin together with polymyxin B for each isolate as follows:
(§5) FICX=concentration of the combination antibiotic in a particular row MIC of the combination drug alone
(§6) FICY=MIC of polymyxin B in combination[…]MIC of the polymyxin B alone
(§7) Additionally isobolograms were created to represent the same data visually. Here, the MIC of polymyxin B was plotted against every concentration of the combination antibiotic up to the MIC.

[4] = test system: GN52 Acinetobacter baumannii levofloxacin resistant clinical isolate; assay: as above; type: cell-based
Source text: as §1, §2, §3, §4, §5, §6, §7

[5] = test system: GN56 Acinetobacter baumannii levofloxacin resistant clinical isolate; assay: as above; type: cell-based
Source text: as §1, §2, §3, §4, §5, §6, §7

[6] = test system: GN48 Klebsiella pneumoniae NCTC 13443 NDM-1-β-lactamase producing isolate; assay: as above; type: cell-based
Source text: as §1, §2, §3, §4, §5, §6, §7

E. faecium 19434 = assay: MIC, standard panel of Gram-positive and Gram-negative strains (Example 2); type: cell-based; details: Enterococcus faecium
E. cloacae 13047 = assay: as above; type: cell-based, Enterobacter cloacae; details: Enterobacter cloacae, 13047; read-out: MIC E. cloacae 13047
S. aureus 101 = assay: as above; type: cell-based; details: Staphylococcus aureus
[7] = Acinetobacter, Acinetobacter spp. H064200250 (OXA51), +[…] PB, 2nd experiment, read-out: MBC
[8] = Acinetobacter, read-out: MBC +[…] PB, Acinetobacter spp. H064200250, +[…] polymyxin B, 1st experiment
[9] = Acinetobacter baumannii, J2, A. baumannii J2, +[…] PB, 2nd experiment, read-out: MBC
[10] = Acinetobacter baumannii, J2, read-out: MBC +[…] PB, A. baumannii J2, +[…] polymyxin B, 1st experiment
[11] = Acinetobacter baumannii, A329, A. baumannii A329, +0.06 μg/ml PB, read-out: MBC
[12] = Acinetobacter baumannii, A489, A. baumannii A489, +[…] PB, 2nd experiment, read-out: MBC
[13] = Acinetobacter baumannii, A489, read-out: MBC +[…] PB, A. baumannii A489, +[…] polymyxin B, 1st experiment
[14] = in combination with polymyxin B
[15] = polymyxin B with the named antibiotic

Compound Cc1c(-c2ccc(N)cc2)c(F)cn2c(=O)c(C(=O)O)cc(C3CC3)c12 [Compound 7, 8-(4-amino-phenyl)-1-cyclopropyl-7-fluoro-9-methyl-4-oxo-quinolizine-3-carboxylic acid] has an MIC (S. pneumoniae 49619) of 0.25 µg/mL (≈ 0.709 µM), an MBC [1, 7] of at most 0.03 µg/mL and an MBC [1, 8] of 0.25 µg/mL (≈ 0.709 µM). The MIC (E. faecalis 29212) was 0.06 µg/mL (≈ 0.17 µM), the MBC (A. baumannii J2; [9]) was at most 0.03 µg/mL and the MBC (A. baumannii J2; [10]) was at most 0.03 µg/mL. The IC50 (Cytotoxicity (Example 7)) was 150 µM, the “Dilutions improvement shift on B. thailandensis MIC90 (between pH 7 and pH 5)” value (B. thailandensis) was “Yes, 4x” and the MBC (A. baumannii A329; [11]) was 2 µg/mL (≈ 5.68 µM). The MIC (A. baumanii 19606) was 0.5 µg/mL (≈ 1.42 µM), the MIC (S. aureus SMITH) was 0.25 µg/mL (≈ 0.709 µM) and the MBC (A. baumannii A489; [12]) was at most 0.03 µg/mL. For the same compound, the MBC (A. baumannii A489; [13]) was at most 0.03 µg/mL.
For Imipenem/cilastatin, the MBC ([1]; Acinetobacter spp. H064200250 (OXA51), +[…] PB, 2nd experiment) was 0.5 µg/mL, the MBC ([1]; Acinetobacter spp. H064200250 (OXA51), without PB, 2nd experiment) was 8 µg/mL and the “MBC +[…] PB” value ([1]; Acinetobacter spp. H064200250, +[…] polymyxin B, 1st experiment) was 2 (0.5)* μg/ml. For the same compound, the “MBC without PB” value ([1]; Acinetobacter spp. H064200250, without polymyxin B, 1st experiment) was 16 µg/mL, the MBC (A. baumannii J2; A. baumannii J2, +[…] PB, 2nd experiment) was at most 0.125 µg/mL and the “MBC +[…] PB” value (A. baumannii J2; A. baumannii J2, +[…] polymyxin B, 1st experiment) was at most 0.125 µg/mL. For the same compound, the MBC (A. baumannii J2; A. baumannii J2, without PB, 2nd experiment) was 8 µg/mL, the “MBC without PB” value (A. baumannii J2; A. baumannii J2, without polymyxin B, 1st experiment) was 4 µg/mL and the MBC (A. baumannii A329; A. baumannii A329, +0.06 μg/ml PB) was 128 µg/mL. The MBC (A. baumannii A329; A. baumannii A329, without PB) was over 128 µg/mL, the “MBC without PB” value (A. baumannii A329; A. baumannii A329, without polymyxin B, 1st experiment) was 128 µg/mL and the “MIC range without PB Oct. 1, 2006 n = 8” value [2] was 1 to 128 µg/mL. For the same compound, the MBC (A. baumannii A489; A. baumannii A489, +[…] PB, 2nd experiment) was 0.25 µg/mL, the “MBC +[…] PB” value (A. baumannii A489; A. baumannii A489, +[…] polymyxin B, 1st experiment) was 2 µg/mL and the MBC (A. baumannii A489; A. baumannii A489, without PB, 2nd experiment) was 64 µg/mL. The “MBC without PB” value (A. baumannii A489; A. baumannii A489, without polymyxin B, 1st experiment) was 64 µg/mL.
With Cc1c(-c2cc(F)c(N)cc2F)ccn2c(=O)c(C(=O)O)cc(C3CC3)c12 [Compound 2, 8-(4-amino-2,5-difluorophenyl)-1-cyclopropyl-9-methyl-4-oxo-4H-quinolizine-3-carboxylic acid] the “Combination drug MIC alone” value [3] was 0.06 µg/mL, the FICx [3] was 0.25 and the FICy [3] was 0.24. The FICI ([3]; combination with polymyxin B) was 0.49, the Synergy ([3]; combination with polymyxin B) was “Synergy (Synergy (FICI <0.5))” and the “Combination drug concentration in combination” value (from here on “Combination drug concentration”) [3, 14] was 0.015 mg/L. The “Polymyxin B MIC in combination” value [3, 15] was 0.06 µg/mL, the “Combination drug MIC alone” value [4] was 4 µg/mL and the FICx [4] was 0.25. The FICy [4] was 0.24, the FICI ([4]; combination with polymyxin B) was 0.49 and the Synergy ([4]; combination with polymyxin B) was “Synergy (Synergy (FICI <0.5))”. For the same compound, the “Combination drug concentration” value [4, 14] was 1 mg/L, the “Polymyxin B MIC in combination” value [4, 15] was 0.12 µg/mL and the “Combination drug MIC alone” value [5] was 16 µg/mL. The FICx [5] was 0.06, the FICy [5] was 0.50 and the FICI ([5]; combination with polymyxin B) was 0.56. The Synergy ([5]; combination with polymyxin B) was “Partial synergy (partial synergy/addition (FICI 0.51 to 0.75))”, the “Combination drug concentration” value [5, 14] was 1 mg/L and the “Polymyxin B MIC in combination” value [5, 15] was 0.25 µg/mL. For the same compound, the “Combination drug MIC alone” value [6] was 32 µg/mL, the FICx [6] was 0.13 and the FICy [6] was 0.50. For the same compound, the FICI ([6]; combination with polymyxin B) was 0.63, the Synergy ([6]; combination with polymyxin B) was “Partial synergy (partial synergy/addition (FICI 0.51 to 0.75))” and the Synergy ([6]; combination with polymyxin B, listed as compound 2) was “partial synergy”. The “Combination drug concentration” value [6, 14] was 4 mg/L, the “Polymyxin B MIC in combination” value [6, 15] was 0.25 µg/mL and the MIC (E. faecium 19434) was 0.5 µg/mL (≈ 1.35 µM). The MBC [1, 7] was 0.06 µg/mL (≈ 0.162 µM), the MBC [1, 8] was at most 0.03 µg/mL and the MIC (E. cloacae 13047) was 0.25 µg/mL (≈ 0.675 µM). For the same compound, the MBC (A. baumannii J2; [9]) was at most 0.03 µg/mL, the MBC (A. baumannii J2; [10]) was at most 0.03 µg/mL and the IC50 (Cytotoxicity (Example 7)) was 250 µM. The MIC (S. aureus 101) was 0.125 µg/mL (≈ 0.338 µM), the MBC (A. baumannii A329; [11]) was 0.5 µg/mL (≈ 1.35 µM) and the MIC (A. baumanii 19606) was 0.06 µg/mL (≈ 0.162 µM). For the same compound, the MBC (A. baumannii A489; [12]) was at most 0.03 µg/mL and the MBC (A. baumannii A489; [13]) was at most 0.03 µg/mL.
